Values of other authors as cited in patent publication US20060009642A1, “Methods for the synthesis of substituted purines” (IRM LLC, a Delaware Limited Liability Company, priority 2001, published 2006).

Test system: cyclin-dependent kinase 1 (CDK1)
Conditions: binds to the ATP-binding site; Arris et al., J. Med. Chem. 43, 2797 (2000)

inhibition of CDK1, mode of inhibition: competitive inhibitor
Structure (SMILES): Nc1nc(OCC2CCCCC2)c2[nH]cnc2n1 [O6-cyclohexylmethylguanine]
